Laboratory results published in patent US20170290774A1, “NEUROKININ-1 RECEPTOR ANTAGONIST COMPOSITION FOR TREATMENT OF DISEASES AND CONDITIONS OF THE RESPIRATORY TRACT” (PLUS VITECH, S.L., priority 2014, published 2017).

Legend:
[1] = tested on: TGFβ1; assay: Immunohistochemistry of TGFβ1 in respiratory tract tissue of sodium hypochlorite aerosol-treated rabbits; assay type: in vivo, New Zealand albino rabbits
Excerpt: (§1) It is known that the factors TGF-α, TGF-β 1, TGF-β 2, TGF-β 3, SPARC, MMP-3; MMP-7, MMP-9, MMP-11, MMP-13 and MMP-14, TGF-β, NF-kB, EGF, MMP-9, VEGF and TNF-α which are produced by lung cells (pneumocytes, fibroblasts and vascular endothelial cells) and inflammatory cells (macrophages, lymphocytes and polymorphonuclear leukocytes) are involved in the pathophysiology and development of said respiratory tract diseases. […] Herein, 27 New Zealand albino rabbits (New Zealand White Rabbit) with an initial average weight about 3 kg were used in this example. All subjects were administered an aerosol of a solution consisting of a mixture of water and sodium hypochlorite (35 g sodium hypochlorite per liter of water) at a rate of 5 mL of said solution by inhalation three times a day for 7 days (days 1 to 7 of experimentation). Subsequently, from days 3 to 7, a group of 3 rabbits (Group 1) was administered an oral dose of 10 mg/kg body weight per day, another group of 3 rabbits (Group 2) was administered an oral dose of 40 mg/kg body weight per day, a third group (Group 3) was administered an oral dose of 80 mg/kg body weight per day and a fourth group (Group 4) was administered an oral dose of 100 mg/kg body weight per day. […] This mixture was administered as an aerosol by inhalation, also from days 3 to 7, to a group of 3 rabbits (group 5) at a dose of 0.05 mg/kg body weight per day, to another group of three rabbits (Group 6) at a dose of 0.1 mg/kg body weight per day, to another group of three rabbits (Group 7) at a dose of 0.2 mg/kg body weight per day and to another group of three rabbits (Group 8) at a dose of 0.4 mg/kg body weight per day. A placebo consisting only of olive oil was administered from days 3 to 7 to a control group of 3 rabbits (placebo group). In parallel, 3 rabbits were kept under identical conditions but were not administered any treatment nor the aforementioned sodium hypochlorite solution (control group). […] On day 7 of the experiment all animals were euthanized and necropsied. […] Samples were taken at the peripheral level of the lung parenchyma, just below the pleural surface. Tissue samples were also taken from the nasal cavity, pharynx, larynx and bronchi. Immunohistochemistry studies were performed for all samples to evaluate the levels of the markers TGF-α, TGF-β 1, TGF-β 2, TGF-β 3 SPARC, MMP-3; MMP-7, MMP-9, MMP-11, MMP-14, TGF-β, TNF-α and VEGF. In said immunohistochemistry studies, a sample of each sample was dehydrated by treatment with increasing concentrations of ethanol and finally xylene. Subsequently said dried samples were embedded in paraffin, thus creating a block. Said paraffin blocks were cut on a microtome to a thickness of 5 μm, and the resulting sections (slices) were placed on slides suitable for conducting immunohistochemistry techniques. Subsequently, the sections were deparaffinised by immersion in xylene and then rehydrated through immersion in a series of solutions containing decreasing concentrations of ethanol and, finally, water. […] The samples were then allowed to cool to room temperature over 10 minutes. Endogenous peroxidase activity was blocked by treatment with 3% hydrogen peroxide over 30 min at room temperature. […] In order to verify the expression of NK1 receptors, the cell samples were incubated in the presence of anti-NK1 antibodies ([…], Sigma-Aldrich) diluted 1:1000 at 4° C. overnight. After this time they were washed in 0.05M Tris buffer at room temperature. Subsequently, Envision System-HRP (Dako) reagents were added for 30 min at room temperature. Once this time had expired, the samples were again washed with 0.05 M Tris buffer, and immunoreactivity was visualized by light microscopy with a chromogenic solution with 3,3'-diaminobenzidine (DAB+; Dako, USA). In order to differentiate the cell nuclei, these were lightly stained with haematoxylin. Samples that were not incubated with the primary antibody, but wherein this was replaced by a non-immune serum were used as negative controls. […]

[2] = tested on: MMP-11; assay: Immunohistochemistry of MMP-11 in respiratory tract tissue of sodium hypochlorite aerosol-treated rabbits; assay type: in vivo, New Zealand albino rabbits
Excerpt: as §1

[3] = bronchial tissue, Group 1, oral 10 mg/kg per day
[4] = bronchial tissue, Group 2, oral 40 mg/kg per day
[5] = bronchial tissue, Group 3, oral 80 mg/kg per day
[6] = bronchial tissue, Group 4, oral 100 mg/kg per day
[7] = laryngeal tissue, Group 1, oral 10 mg/kg per day
[8] = laryngeal tissue, Group 2, oral 40 mg/kg per day
[9] = laryngeal tissue, Group 3, oral 80 mg/kg per day
[10] = laryngeal tissue, Group 4, oral 100 mg/kg per day
[11] = laryngeal tissue, Group 5, inhalation 0.05 mg/kg per day
[12] = laryngeal tissue, Group 6, inhalation 0.1 mg/kg per day
[13] = laryngeal tissue, Group 7, inhalation 0.2 mg/kg per day
[14] = laryngeal tissue, Group 8, inhalation 0.4 mg/kg per day
[15] = lung tissue, Group 1, oral 10 mg/kg per day
[16] = lung tissue, Group 2, oral 40 mg/kg per day
[17] = lung tissue, Group 3, oral 80 mg/kg per day
[18] = lung tissue, Group 4, oral 100 mg/kg per day
[19] = lung tissue, Group 5, inhalation 0.05 mg/kg per day
[20] = lung tissue, Group 6, inhalation 0.1 mg/kg per day
[21] = lung tissue, Group 7, inhalation 0.2 mg/kg per day
[22] = lung tissue, Group 8, inhalation 0.4 mg/kg per day
[23] = nasal cavity tissue, Group 1, oral 10 mg/kg per day
[24] = nasal cavity tissue, Group 2, oral 40 mg/kg per day
[25] = nasal cavity tissue, Group 3, oral 80 mg/kg per day
[26] = nasal cavity tissue, Group 4, oral 100 mg/kg per day
[27] = nasal cavity tissue, Group 5, inhalation 0.05 mg/kg per day
[28] = nasal cavity tissue, Group 6, inhalation 0.1 mg/kg per day
[29] = nasal cavity tissue, Group 7, inhalation 0.2 mg/kg per day
[30] = nasal cavity tissue, Group 8, inhalation 0.4 mg/kg per day
[31] = pharyngeal tissue, Group 1, oral 10 mg/kg per day
[32] = pharyngeal tissue, Group 2, oral 40 mg/kg per day
[33] = pharyngeal tissue, Group 3, oral 80 mg/kg per day
[34] = pharyngeal tissue, Group 4, oral 100 mg/kg per day
[35] = pharyngeal tissue, Group 5, inhalation 0.05 mg/kg per day
[36] = pharyngeal tissue, Group 6, inhalation 0.1 mg/kg per day
[37] = pharyngeal tissue, Group 7, inhalation 0.2 mg/kg per day
[38] = pharyngeal tissue, Group 8, inhalation 0.4 mg/kg per day

C[C@@H](OC1OCCN(Cc2nc(=O)[nH][nH]2)C1c1ccc(F)cc1)c1cc(C(F)(F)F)cc(C(F)(F)F)c1 (stereo in doubt) [Aprepitant, 5-([(2R,3S)-2-((R)-1-[3,5-bis(trifluoromethyl)phenyl]ethoxy)-3-(4-fluorophenyl)morpholino]methyl)-1H-1,2,4-triazol-3(2H)-one]
Percent increase in TGFβ1 with respect to the control group [1, 3]: 1,234.56% | Percent increase in TGFβ1 with respect to the control group [1, 4]: 984.45% | Percent increase in TGFβ1 with respect to the control group [1, 5]: 768.32% | Percent increase in TGFβ1 with respect to the control group [1, 6]: 502.23% | % Med G5/C: percent increase in marker TGFβ1 with respect to the control group ([1]; bronchial tissue, Group 5): 1,103.34% | % Med G6/C: percent increase in marker TGFβ1 with respect to the control group ([1]; bronchial tissue, Group 6): 708.45% | % Med G7/C: percent increase in marker TGFβ1 with respect to the control group ([1]; bronchial tissue, Group 7): 302.34% | % Med G8/C: percent increase in marker TGFβ1 with respect to the control group ([1]; bronchial tissue, Group 8): 124.37% | Percent increase in TGFβ1 with respect to the control group [1, 7]: 1,567.67% | Percent increase in TGFβ1 with respect to the control group [1, 8]: 1,278.89% | Percent increase in TGFβ1 with respect to the control group [1, 9]: 1,067.78% | Percent increase in TGFβ1 with respect to the control group [1, 10]: 988.78% | Percent increase in TGFβ1 with respect to the control group [1, 11]: 1,398.78% | Percent increase in TGFβ1 with respect to the control group [1, 12]: 760.87% | Percent increase in TGFβ1 with respect to the control group [1, 13]: 320.34% | Percent increase in TGFβ1 with respect to the control group [1, 14]: 102.23% | Percent increase in TGFβ1 with respect to the control group [1, 15]: 1,277.48% | Percent increase in TGFβ1 with respect to the control group [1, 16]: 990.28% | Percent increase in TGFβ1 with respect to the control group [1, 17]: 858.27% | Percent increase in TGFβ1 with respect to the control group [1, 18]: 759.25% | Percent increase in TGFβ1 with respect to the control group [1, 19]: 1,166.88% | Percent increase in TGFβ1 with respect to the control group [1, 20]: 492.89% | Percent increase in TGFβ1 with respect to the control group [1, 21]: 270.24% | Percent increase in TGFβ1 with respect to the control group [1, 22]: 123.01% | Percent increase in TGFβ1 with respect to the control group [1, 23]: 2,191.33% | Percent increase in TGFβ1 with respect to the control group [1, 24]: 1,562.26% | Percent increase in TGFβ1 with respect to the control group [1, 25]: 1,491.16% | Percent increase in TGFβ1 with respect to the control group [1, 26]: 1,373.96% | Percent increase in TGFβ1 with respect to the control group [1, 27]: 2,065.52% | Percent increase in TGFβ1 with respect to the control group [1, 28]: 745.49% | Percent increase in TGFβ1 with respect to the control group [1, 29]: 480.80% | Percent increase in TGFβ1 with respect to the control group [1, 30]: 138.39% | Percent increase in TGFβ1 with respect to the control group [1, 31]: 2,198.45% | Percent increase in TGFβ1 with respect to the control group [1, 32]: 1,562.45% | Percent increase in TGFβ1 with respect to the control group [1, 33]: 1,208.45% | Percent increase in TGFβ1 with respect to the control group [1, 34]: 1,001.31% | Percent increase in TGFβ1 with respect to the control group [1, 35]: 1,804.23% | Percent increase in TGFβ1 with respect to the control group [1, 36]: 1,220.34% | Percent increase in TGFβ1 with respect to the control group [1, 37]: 609.67% | Percent increase in TGFβ1 with respect to the control group [1, 38]: 121.89% | Percent increase in MMP-11 with respect to the control group [2, 3]: 784.45% | Percent increase in MMP-11 with respect to the control group [2, 4]: 673.45% | Percent increase in MMP-11 with respect to the control group [2, 5]: 563.45% | Percent increase in MMP-11 with respect to the control group [2, 6]: 453.34% | % Med G5/C: percent increase in marker MMP-11 with respect to the control group ([2]; bronchial tissue, Group 5): 653.23% | % Med G6/C: percent increase in marker MMP-11 with respect to the control group ([2]; bronchial tissue, Group 6): 438.43% | % Med G7/C: percent increase in marker MMP-11 with respect to the control group ([2]; bronchial tissue, Group 7): 342.56% | % Med G8/C: percent increase in marker MMP-11 with respect to the control group ([2]; bronchial tissue, Group 8): 159.42% | Percent increase in MMP-11 with respect to the control group [2, 7]: 789.61% | Percent increase in MMP-11 with respect to the control group [2, 8]: 576.17% | Percent increase in MMP-11 with respect to the control group [2, 9]: 456.89% | Percent increase in MMP-11 with respect to the control group [2, 10]: 324.89% | Percent increase in MMP-11 with respect to the control group [2, 11]: 768.34% | Percent increase in MMP-11 with respect to the control group [2, 12]: 504.34% | Percent increase in MMP-11 with respect to the control group [2, 13]: 203.23% | Percent increase in MMP-11 with respect to the control group [2, 14]: 167.36% | Percent increase in MMP-11 with respect to the control group [2, 15]: 522.19% | Percent increase in MMP-11 with respect to the control group [2, 16]: 416.18% | Percent increase in MMP-11 with respect to the control group [2, 17]: 339.86% | Percent increase in MMP-11 with respect to the control group [2, 18]: 251.62% | Percent increase in MMP-11 with respect to the control group [2, 19]: 520.05% | Percent increase in MMP-11 with respect to the control group [2, 20]: 222.75% | Percent increase in MMP-11 with respect to the control group [2, 21]: 169.57% | Percent increase in MMP-11 with respect to the control group [2, 22]: 128.28% | Percent increase in MMP-11 with respect to the control group [2, 23]: 1,023.73% | Percent increase in MMP-11 with respect to the control group [2, 24]: 609.60% | Percent increase in MMP-11 with respect to the control group [2, 25]: 392.70% | Percent increase in MMP-11 with respect to the control group [2, 26]: 270.95% | Percent increase in MMP-11 with respect to the control group [2, 27]: 1,215.12% | Percent increase in MMP-11 with respect to the control group [2, 28]: 489.76% | Percent increase in MMP-11 with respect to the control group [2, 29]: 266.47% | Percent increase in MMP-11 with respect to the control group [2, 30]: 133.33% | Percent increase in MMP-11 with respect to the control group [2, 31]: 1,387.65% | Percent increase in MMP-11 with respect to the control group [2, 32]: 1,980.45% | Percent increase in MMP-11 with respect to the control group [2, 33]: 980.34% | Percent increase in MMP-11 with respect to the control group [2, 34]: 670.45% | Percent increase in MMP-11 with respect to the control group [2, 35]: 1,324.23% | Percent increase in MMP-11 with respect to the control group [2, 36]: 904.21% | Percent increase in MMP-11 with respect to the control group [2, 37]: 529.34% | Percent increase in MMP-11 with respect to the control group [2, 38]: 109.43%
